Data on one molecule can be found in US20200367506A1, “RARE EARTH DEPENDENT PLANT PROBIOTIC COMPOSITIONS AND METHODS OF USE” (BOARD OF TRUSTEES OF MICHIGAN STATE UNIVERSITY, priority 2017, published 2020).

Each structure is given as a SMILES string.

For one assay, the system named is M. extorquens. As to the kind of experiment: Illumina-based transcriptome analysis (RNA-seq) of cells grown with and without REE. The format is cell-based. To be noted: La^3+ vs without REE. The method, then:
To identify mechanisms by which M. extorquens can sense and acquire REE, as well as to support REE-dependent methanol growth, Illumina-based transcriptome analyses (RNA-seq) was performed. Comparison of cells grown in liquid culture with and without REE addition allowed us to identify changes that may be relevant in planta.
It is intriguing to speculate that the reason why Fdh4 activity has never been detected is because it may require REEs. Frc12 and Oxr are enzymes of the oxalyl-CoA pathway (OXC). This pathway is known to produce glyoxylate when M. extorquens is grown with oxalate as a carbon source.

The subject of assay [1] is M. extorquens mxaF mutant strain. The assay is described as follows: REE/La^3+-dependent methanol growth of mxaF mutant strain. The assay is classed as cell-based. An excerpt:
FIGS. 5A-5B show REE-dependent methylotrophy.
There is a direct link between REEs commonly used in fertilizers, such as La, Ce^3+, Pr^3+, and Nd^3+, and growth of M. extorquens using methanol as carbon source (FIG. 5A). […] Alternatively, it is possible that the remaining lanthanides are not transported into the cell. Detailed biochemical analyses are required to distinguish between these two possibilities.
The concentrations of exogenous La^3+ that would support La^3+-dependent methanol growth were assessed using methanol medium supplemented with La^3+ concentrations ranging from 0-20 μM (FIG. 5B). The mxaF mutant strain was used to eliminate any contribution by the Ca^2+-dependent methanol dehydrogenase MxaFI.

With `[La+3]` [La^3+, lanthanum], in the assay with M. extorquens, the “Upregulation of Zn-containing alcohol dehydrogenase Zn-ADH” value came out at 4.8 fold, the “Upregulation of an ABC transporter” value was found to be 6.3 fold, the “Upregulation of formate dehydrogenase Fdh4” value stood at 4 fold and the “Upregulation of formyl-CoA transferase Frc12” value stood at 3 fold. Besides, in the assay with M. extorquens, the “Upregulation of oxalyl-CoA (Oxr)” value came to 2.5 fold, the “Upregulation of putative alcohol dehydrogenase quinoprotein ExaF” value was found to be 3.4 fold and the “Upregulation of the PQQ synthesis pathway” value stood at 10 fold. Besides, the “Upregulation of methanol dehydrogenase genes XoxF1 and XoxF2” value in the assay with M. extorquens (methanol growth) is 10 fold. Moreover, the “Final OD600” value in assay [1] (1 μM La^3+) is given as 1.6. The “La^3+ concentration resulting in maximal growth rate” value in assay [1] (methanol medium) was 1 µM. The “Lowest La^3+ concentration at which La^3+-dependent methanol growth was observed” value in assay [1] (poor growth) was 2.5 nM.
